According to patent US20190185865A1, “USE OF PROKARYOTIC TRANSCRIPTIONAL ACTIVATORS AS METABOLITE BIOSENSORS IN EUKARYOTIC CELLS” (Danmarks Tekniske Universitet, priority 2016, published 2019):
Values joined by “and” are separate entries in the source; they are usually repeats but may differ in a detail not shown here. Equal entries are not always repeated.

How the values were obtained:
[1] = system: yeast cells; test: Growth of yeast cells in liquid medium containing CCM; assay type: cell-based, Saccharomyces cerevisiae; conditions: pH 4.5
Protocol: FIG. 9 (a) Uptake of cis,cis-muconic acid (CCM) at pH 4.5 by S. cerevisiae cells following 24 h of growth. (b) Representative growth curves of yeast cells in liquid medium containing different concentrations of CCM. OD values were determined at 1-h intervals over 25-h period. For both (a) and (b) data display means±s.d. from three (n=3) biological replicate cultivations.

[2] = Solubility in growth medium; assay type: physicochemical; conditions: aqueous buffer, read-out: highest soluble CCM concentration
[3] = target: T1, BenM^H110R, F211V, Y286N (Acinetobacter baylyi, UniProt O68014, F211V/H110R/Y286N); test: CCM-induced GFP expression in yeast expressing engineered BenM variants (epPCR library, FACS, flow cytometry); assay type: cell-based, Saccharomyces cerevisiae
T1 construct: expressed in transfected cells; host or cells: Saccharomyces cerevisiae; centromeric plasmid (gap repair) or chromosomal integration, REV1p
Text: For optimization of the CCM inducibility of BenM, purified products from three consecutive rounds of error-prone PCR (epPCR) of the effector-binding domain (EBD, residues 90-304) of BenM, were co-transformed into yeast together with linearized centromeric plasmid according to Eckert-Boulet et al. (Eckert-Boulet, N., Pedersen, M. L., Krogh, B. O. & Lisby, M. Optimization of ordered plasmid assembly by gap repair in Saccharomyces cerevisiae. Yeast 29, 323-34 (2012)), to allow for in vivo gap repair and library reconstitution of wild-type BenM DNA binding domain (DBD) fused to EBD variants expressed from REV1p. For epPCR we used the GeneMorph II kit according to manufacturer's description (Agilent Technologies). Transformed yeast contained a chromosomal integration of the 209 bp_CYC1p_BenO_T1 promoter controlling the expressing of GFP at EasyClone site 4 on chromosome XII (Mikkelsen, M. D. et al. Microbial production of indolylglucosinolate through engineering of a multi-gene pathway in a versatile yeast expression platform. Metab. Eng. 14, 104-11 (2012)), to allow for FACS-based screening of improved CCM-inducible BenM variants.
A two-step method was used to sort for BenM variants that specifically induce in the presence of CCM. Cells (10× library size, approx. 400,000 cells) were inoculated in mineral medium without inducer and incubated for 24 h at 30° C., diluted into PBS, and then GFP intensity of individual cells was measured using a BD Biosciences Aria (Becton Dickinson) with a blue laser (488 nm) by applying tight gates on the FSC and SSC channels. Only cells displaying auto-fluorescence intensities were sorted in order to limit auto-activating BenM variants. Sorted cells were recovered in mineral medium, followed by subculturing (1:100) into mineral medium containing 1.4 mM (200 mg/L) cis,cis-muconic acid. The cells were grown for 24 h at 30° C., washed and subjected to a second round of FACS. […] Individual clones were subsequently validated using flow cytometry.
(§1) Events were analyzed using FlowJo software (TreeStar Inc.).

[4] = system: BenM; test: CCM-induced GFP expression in yeast strains combining BenM expression cassettes and CYC1p reporter promoter variants (flow cytometry); assay type: cell-based, Saccharomyces cerevisiae; conditions: for FC (+/−CCM): 1.4 mM CCM, 24 h
Text: Strains, chemicals and media. Saccharomyces cerevisiae CEN.PK102-5B (MATa ura3-52 his3Δ1 leu2-3/112 MAL2-8^c SUC2), CEN.PK113-5A (MATa, trp1 his3Δ1 leu2-3/112 MAL2-8^c SUC2) and CEN.PK113-7D (wild type, MATa MAL2-8^c SUC2) strains were obtained from Peter Kotter (Johann Wolfgang Goethe-University Frankfurt, Germany). In principal any other yeast strains may be used, such as one obtained from public repository EuroScarf. EasyClone plasmids used in this work are described in Jensen, N. B. et al. EasyClone: method for iterative chromosomal integration of multiple genes in Saccharomyces cerevisiae. FEMS Yeast Res. 14, 238-48 (2014). Escherichia coli strain DH5a was used as a host for cloning and plasmid propagation. The chemicals and Pfu TURBO DNA polymerase were commercially obtained (Sigma-Aldrich and Agilent Technologies Inc., respectively). All acids used were >97% in purity. S. cerevisiae cells were grown at 30° C. in synthetic complete medium as well as drop-out media and agar plates were prepared using pre-mixed drop-out powders (Sigma-Aldrich). Mineral medium was freshly prepared as described previously. For all media containing diacids, 1.4 mM of the individual diacids were dissolved in mineral medium and pH adjusted to 4.5 before sterile filtration. For CCM several dilutions were made to examine the performance of the CCM biosensor. For naringenin, mineral medium was supplemented with 0, 0.05, 0.10 or 0.20 mM naringenin, dissolved in ethanol, the final ethanol concentration for each medium was 2% (v/v), and the final pH of the medium was adjusted to 6.0. E. coli cells were grown at 37° C. in Luria-Bertani (LB) medium supplemented with 100 μg/mL ampicillin.
as §1

[5] = strain MeLS0131, 491bp_CYC1p:GFP
[6] = strain MeLS0132, 272bp_CYC1p:GFP
[7] = strain MeLS0133, 249bp_CYC1p:GFP
[8] = strain MeLS0134, 209bp_CYC1p:GFP
[9] = strain MeLS0135, 491bp_CYC1p_BenO_T1:GFP
[10] = strain MeLS0136, 272bp_CYC1p_BenO_T1:GFP
[11] = strain MeLS0137, 249bp_CYC1p_BenO_T1:GFP
[12] = strain MeLS0138, 209bp_CYC1p_BenO_T1:GFP
[13] = strain MeLS0177, 491bp_CYC1p_BenO_T2:GFP
[14] = strain MeLS0178, 491bp_CYC1p_BenO_T1/T2:GFP
[15] = strain MeLS0180, 209bp_CYC1p_BenO_T2:GFP
[16] = strain MeLS0181, 209bp_CYC1p_BenO_T1/T2:GFP
[17] = strain MeLS0259, 272bp_CYC1p_BenO_T2:GFP
[18] = strain MeLS0260, 249bp_CYC1p_BenO_T2:GFP
[19] = strain MeLS0261, 272bp_CYC1p_BenO_T1/T2:GFP
[20] = strain MeLS0262, 249bp_CYC1p_BenO_T1/T2:GFP

T1 sequence (O68014 whole entry H110R/F211V/Y286N): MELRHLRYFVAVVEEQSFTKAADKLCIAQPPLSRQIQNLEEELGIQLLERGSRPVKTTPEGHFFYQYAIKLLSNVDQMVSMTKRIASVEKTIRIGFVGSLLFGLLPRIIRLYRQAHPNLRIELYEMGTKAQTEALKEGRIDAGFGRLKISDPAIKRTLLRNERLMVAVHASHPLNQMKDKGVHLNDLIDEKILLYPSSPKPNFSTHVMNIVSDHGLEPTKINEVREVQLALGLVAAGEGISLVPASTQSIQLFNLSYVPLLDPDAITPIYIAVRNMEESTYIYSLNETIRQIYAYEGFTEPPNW

Structure (SMILES): O=C(O)/C=C\C=C/C(=O)O [CCM, cis, cis-muconic acid]
- growth of yeast in presence of CCM [1]: without any growth defects
- solubility [2]: 1400 µM and 200 µg/mL
- specificity of GFP induction among diacids tested ([3]; BenM^H110R, diacids 1.4 mM, pH 4.5, 24 h): induce GFP expression specifically in response to CCM
- maximum induction of GFP output ([3]; chromosomally integrated BenM^H110R, 1.4 mM (200 mg/L) CCM, 24 h): 10 fold
- GFP output upon CCM induction ([3]; plasmid-based expression of BenM^H110R): 6 fold
- Mean fluorescense intensities of GFP (24 h), CCM (1.4 mM) [4, 5]: 2899
- FC (+/−CCM) [4, 5]: 1.042
- Mean fluorescense intensities of GFP (24 h), CCM (1.4 mM) [4, 6]: 211
- FC (+/−CCM) [4, 6]: 1.213
- Mean fluorescense intensities of GFP (24 h), CCM (1.4 mM) [4, 7]: 219
- FC (+/−CCM) [4, 7]: 1.043
- Mean fluorescense intensities of GFP (24 h), CCM (1.4 mM) [4, 8]: 171
- FC (+/−CCM) [4, 8]: 1.13
- Mean fluorescense intensities of GFP (24 h), CCM (1.4 mM) [4, 9]: 801
- FC (+/−CCM) [4, 9]: 1.062
- Mean fluorescense intensities of GFP (24 h), CCM (1.4 mM) [4, 10]: 160
- FC (+/−CCM) [4, 10]: 1.032
- Mean fluorescense intensities of GFP (24 h), CCM (1.4 mM) [4, 11]: 180
- FC (+/−CCM) [4, 11]: 1.151
- Mean fluorescense intensities of GFP (24 h), CCM (1.4 mM) [4, 12]: 167
- FC (+/−CCM) [4, 12]: 1.133
- Mean fluorescense intensities of GFP (24 h), CCM (1.4 mM) [4, 13]: 698
- FC (+/−CCM) [4, 13]: 1.088
- Mean fluorescense intensities of GFP (24 h), CCM (1.4 mM) [4, 14]: 241
- FC (+/−CCM) [4, 14]: 0.9731
- Mean fluorescense intensities of GFP (24 h), CCM (1.4 mM) [4, 15]: 165
- FC (+/−CCM) [4, 15]: 1.088
- Mean fluorescense intensities of GFP (24 h), CCM (1.4 mM) [4, 16]: 165
- FC (+/−CCM) [4, 16]: 1.102
- Mean fluorescense intensities of GFP (24 h), CCM (1.4 mM) [4, 17]: 201
- FC (+/−CCM) [4, 17]: 1.002
- Mean fluorescense intensities of GFP (24 h), CCM (1.4 mM) [4, 18]: 313
- FC (+/−CCM) [4, 18]: 0.909
- Mean fluorescense intensities of GFP (24 h), CCM (1.4 mM) [4, 19]: 257
- FC (+/−CCM) [4, 19]: 0.7988
- Mean fluorescense intensities of GFP (24 h), CCM (1.4 mM) [4, 20]: 203
- FC (+/−CCM) [4, 20]: 1
